The values that follow come from US12599560B2, “Lipids and lipid nanoparticle formulations” (Longuide Biopharma Corporation, priority 2023, dated 2026).

Common to all, as to assay type: physicochemical
Data set [1] in a line: Stability of LNP formulations after storage. As to conditions: both formulations; physical stability and in vivo delivery efficiency. How it is done: Excipients and/or cryoprotectants, such as sucrose, can be added to the nucleic acid lipid nanoparticle preparation obtained in step 6 or to the nucleic acid lipid nanoparticle preparation obtained after dialysis in step 7. As an example, 40% sucrose (Aladdin Reagent (Shanghai) Co., Ltd.) was added to the nucleic acid lipid nanoparticle preparation with the volume ratio of 3:1, which is mixed homogeneously to obtain nucleic acid lipid nanoparticle preparation containing 10% sucrose, and further aliquoted into ribozyme-free centrifuge tubes and stored in an ice box, 4° C., −20° C., and/or −80° C. refrigerator for later use. Physicochemical property measurement and in vivo effect validation of the lipid nanoparticles were performed after thawing and returning to room temperature after storage for the indicated time.

A short description of data set [2]: Potential characterization of nanoparticle preparations. How it is done:
20 μL of the nucleic acid lipid nanoparticle solution (containing about 0.04 mg/mL mRNA) was taken and added with 780 μL of ultrapure water, used a pipette tip to gently blow and mix, and the potential of the nanopreparation was detected by Malvern particle sizer (model ZEN3700). 27.5 μL nucleic acid lipid nanoparticle solution (containing about 0.04 mg/mL mRNA) was taken and added with 200 μL ultrapure water. A pipette tip was used to gently blow the sample and mix well. The particle size of the nanopreparation was detected by Malvern Dynamic Light Scattering Instrument (Malvern Instruments Ltd., ZEN3700, UK). After the detection, the sample was recovered to an EP tube, and 600 μL of ultrapure water was added, gently blown with a pipette tip, and the potential of the nanopreparation was measured by a Malvern particle size meter.

Data set [3] is described as follows: Nucleic acid encapsulation efficiency by fluorescence (RiboGreen). How it is done:
The nucleic acid encapsulation rate of the nucleic acids lipid nanoparticle formulations obtained in steps 6, 7, and 8 can be determined by fluorescence methods, such as using the Quant-iT™ RiboGreen RNA Quantification Kit (Thermo Fisher Scientific). Take the RiboGreen RNA Quantification Kit as an example: Configure the low-range working solution and mRNA standard solution according to the instructions. Take 3 μL of the nucleic acid lipid nanoparticle solution obtained in step 6, add 297 μL of the Tris-EDTA buffer (TE buffer) provided with the kit, mix well, and then suck up 100 μL of it into the black-bottomed ninety-six-well plate, and then add 100 μL of the RiboGreen low-range detection working solution. Add 100 μL of different concentrations of mRNA standard solution into the black bottom 96-well plate, and add 100 μL of RiboGreen low-range detection working solution. After gently blowing and mixing well, incubate for 5 minutes away from light, and then immediately detect and record the fluorescence signal intensity using a multifunctional enzyme labeling instrument (BMG LABTECH, FLUOstar Omega). The free mRNA content not encapsulated by the lipid nanoparticles was calculated by standard curve fitting and calculation, and then divided by the total amount of mRNA in the wells detected to find the nucleic acid encapsulation rate of this nucleic acid lipid nanoparticle preparation.

Setting [4] is: formulation No. 1, molar ratio 1.50:20:33.50:45.00.
The mark [5] stands for this setting: formulation No. 2, molar ratio 1.50:11.50:38.50:48.50.

As to `CCCCCCCCCCCCOC(=O)C(O)CN(CCCN1CCN(CCCN(CC(O)C(=O)OCCCCCCCCCCCC)CC(O)C(=O)OCCCCCCCCCCCC)CC1)CC(O)C(=O)OCCCCCCCCCCCC` (stereo not drawn) [Compound L0191], the “stability after storage under different conditions” value in data set [1] is on record as “excellent stability”. Further, the figures for the Zeta potential in data set [2] (setting [4]) and in data set [2] (setting [5]) were 11.30 ± 0.69 and 12.67 ± 0.61, respectively. The “encapsulation efficiency (in words)” value in data set [3] (all tested formulations) is on record as “high”. In addition, the encapsulation efficiency is reported as 96.26% in data set [3] (setting [4]) and 97.92% in data set [3] (setting [5]).
